Measurements published in patent US20230218589A1, “COMPOUND FOR PREVENTION OR TREATMENT OF A SKIN CANCER OR SKIN PRECANCER” (UNIQUEST PTY LTD, priority 2020, published 2023).

System: 5117-RE (spindle cell sarcoma) cells
Test: Mouse back 5117-RE tumour model (spindle cell sarcoma, Kaposi sarcoma model)
Type: in vivo
Description: Tacrolimus diet: All customised mice diet was manufactured by Specialty Feeds (Perth, Wash.). Briefly, tacrolimus (MedChemExpress) was mixed with caster sugar and then incorporated into standard mouse diet. […] Food colouring was added to distinguish the drug. During the manufacturing process the pellets were air-dried overnight rather than dried in an oven in order to minimise the amount of heat applied. The final product was sealed in airtight bags and stored at 4° C. protected from light to ensure minimal degradation. Pellet volumes in feed hoppers were kept to a minimum and restocked every 3-4 days for the duration of the experiments.
Compound 1 preparation: Compound 1 (Cmpd 1) was prepared at the beginning of each dosing week as a 1 or 2 mg/mL solution as required in 4% ethanol/0.2% Tween-80/PBS. Compound 1 solution was stored at 4° C. for up to one week.
Mouse back 5117-RE tumour model: Method as per the above section (Mouse back cSCC tumour model), with the following changes; BALBc mice were used, and 5117-RE cells were cultured and passaged for 1 week prior to tumour cell injection in RPMI media (Gibco) supplemented with 10% heat inactivated FBS (Gibco) and 1× Penicillin/Streptomycin/Glutamine (Gibco).
Dissociation of tumour cells for FACS analysis: To release cells from tumours, harvested tissue was cut into small fragments and digested for 60 min at 37° C. in RPMI media containing 2% FBS, 3 mg/mL collagenase D and 5 ug/mL DNase I. Tissues were then gently pressed through a 70 μm cell strainer to create a single-cell suspension. […]
FACS analysis: Stained tumour dissociated cells were then washed twice, resuspended in FACS buffer and Flow cytometric analysis was performed using LSR Fortessa X20 (BD Biosciences) flow cytometers with FACSDiva. software (Becton Dickinson, Sparks, Md., USA). Data were exported and analyzed using FlowJo software (I'reestar Inc., Ashland, Oreg., USA).
Mice were injected sub-cutaneously with 1×10^6 5117-RE (spindle cell sarcoma) cells into the lower back and tumour size was monitored 3 times a week throughout the experiment. […]

## CC[C@@H]1/C=C(\C)[C@@H](O)[C@H](C)C[C@H](OC)[C@H]2O[C@@](O)(C(=O)C(=O)N3CCCC[C@H]3C(=O)O[C@H](/C(C)=C/[C@@H]3CC[C@@H](O)[C@H](OC)C3)[C@H](C)[C@@H](O)CC1=O)[C@H](C)C[C@@H]2OC [Compound 1, 17-Ethyl-1,14,20-trihydroxy-12-[2′-(4″-hydroxy-3″-methoxycyclohexyl)-1′-methylvinyl]-23,25-dimethoxy-13,19,21,27-tetramethyl-11,28-dioxa-4-azatricyclo-[22.3.1.0^4,9]octacos-18-ene-2,3,10,16-tetraone]
BALBc mice, BID IT 40 μL of 2 mg/mL, after 10 days treatment, tacrolimus 150 ppm diet
  tacrolimus dependent-tumour growth compared to the vehicle control: significantly reduced
After 13 days treatment
  percentage of TNF alpha+ CD8 T cells isolated from the tumour: significantly increased
After 13 days treatment, ex vivo stimulation with CD3/CD28
  percentage of IFN gamma+ CD8 T cells isolated from the tumour: significantly increased
